Test results taken from ChEMBL document CHEMBL1201862, “PubChem BioAssay data set” (2004).
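Exposure lasted 48 hours, with cells grown in 96-well plates and compounds tested at five concentrations. At the GI50, growth is halved.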 Activity calls are given as the source filed them. No stated cut-off is given here; in the data, active = GI50 up to about 1.1 µM and inactive = higher.

Experiments:
Assay in all cases: growth of human tumour cells (NCI), 48 h
SF-539 = tested on: SF-539
SK-MEL-28 = tested on: SK-MEL-28
CAKI-1 = tested on: CAKI-1
HL-60 = tested on: HL-60
NCI-H460 = tested on: NCI-H460
HCT-116 = tested on: HCT-116
EKVX = tested on: EKVX
HCC 2998 = tested on: HCC 2998
RXF 393 = tested on: RXF 393
SNB-19 = tested on: SNB-19
SN12C = tested on: SN12C
UACC-62 = tested on: UACC-62
DMS-114 = tested on: DMS-114
NCI-H226 = tested on: NCI-H226
NCI-H23 = tested on: NCI-H23
DU-145 = tested on: DU-145
T47D = tested on: T47D
MDA-MB-435 = tested on: MDA-MB-435
PC-3 = tested on: PC-3
MCF7 = tested on: MCF7

| Compound | GI50 (SF-539) | GI50 (SK-MEL-28) | GI50 (CAKI-1) | GI50 (HL-60) | GI50 (NCI-H460) | GI50 (HCT-116) | GI50 (EKVX) | GI50 (HCC 2998) | GI50 (RXF 393) | GI50 (SNB-19) | GI50 (SN12C) | GI50 (UACC-62) | GI50 (DMS-114) | GI50 (NCI-H226) | GI50 (NCI-H23) | GI50 (DU-145) | GI50 (T47D) | GI50 (MDA-MB-435) | GI50 (PC-3) | GI50 (MCF7) |
| --- | --- | --- | --- | --- | --- | --- | --- | --- | --- | --- | --- | --- | --- | --- | --- | --- | --- | --- | --- | --- |
| CCOc1cc(/C=C/C=C/C=C/c2ccc(N(C)C)cc2)[s+]c2ccccc12 | 18.2 µM (inactive) | 19.1 µM (inactive) | 26.5 µM (inactive) | 1.72 µM (inactive) | 46.9 µM (inactive) | 17.7 µM (inactive) | > 100 µM (inactive) | 48.2 µM (inactive) | 10 µM (inactive) | 24.1 µM (inactive) | 21.2 µM (inactive) | 27.8 µM (inactive) | 5.61 µM (inactive) | 11.1 µM (inactive) | 29.9 µM (inactive) | – | – | – | – | – |
| C=C1C(C(=O)O)C1C(=O)O (centres undefined) | > 100 µM (inactive) | > 100 µM (inactive) | > 100 µM (inactive) | > 100 µM (inactive) | > 100 µM (inactive) | > 100 µM (inactive) | > 100 µM (inactive) | > 100 µM (inactive) | > 100 µM (inactive) | > 100 µM (inactive) | > 100 µM (inactive) | > 100 µM (inactive) | > 100 µM (inactive) | 21.1 µM (inactive) | > 100 µM (inactive) | – | – | – | – | – |
| O=c1/c(=C/c2c(O)ccc3ccccc23)sc2nc3ccccc3n12 | > 100 µM (inactive) | > 100 µM (inactive) | > 100 µM (inactive) | > 100 µM (inactive) | > 100 µM (inactive) | > 100 µM (inactive) | > 100 µM (inactive) | > 100 µM (inactive) | > 100 µM (inactive) | > 100 µM (inactive) | > 100 µM (inactive) | > 100 µM (inactive) | > 100 µM (inactive) | > 100 µM (inactive) | > 100 µM (inactive) | – | – | – | – | – |
| COC(=O)C12C3C4C5(C(=O)OC)C(C1C35C(=O)N(C(C)C)C(C)C)C42C(=O)N(C(C)C)C(C)C (centres undefined) | > 50 µM (inactive) | > 50 µM (inactive) | > 50 µM (inactive) | > 36.3 µM (inactive) | > 37.6 µM (inactive) | 14.7 µM (inactive) | > 50 µM (inactive) | > 50 µM (inactive) | > 50 µM (inactive) | > 50 µM (inactive) | > 50 µM (inactive) | > 50 µM (inactive) | > 29.9 µM (inactive) | > 50 µM (inactive) | > 50 µM (inactive) | – | – | – | – | – |
| COC1C=C(Nc2cccc(Cl)c2)C(=O)C1 (centres undefined) | 58.2 µM (inactive) | > 100 µM (inactive) | 50.9 µM (inactive) | 36 µM (inactive) | 44.4 µM (inactive) | 40.2 µM (inactive) | 29.4 µM (inactive) | 53.8 µM (inactive) | 23.4 µM (inactive) | 64.3 µM (inactive) | 64.9 µM (inactive) | 60 µM (inactive) | 34.3 µM (inactive) | 36.4 µM (inactive) | 41.5 µM (inactive) | – | – | – | – | – |
| Nc1ccc(C(=O)N/C(=C\c2cccc([N+](=O)[O-])c2)c2nc3c(O)nc(S)nc3[nH]2)cc1 | 18.5 µM (inactive) | > 100 µM (inactive) | > 100 µM (inactive) | > 100 µM (inactive) | > 100 µM (inactive) | 81.3 µM (inactive) | > 84.9 µM (inactive) | > 100 µM (inactive) | 27.4 µM (inactive) | 42 µM (inactive) | > 88.7 µM (inactive) | 41.9 µM (inactive) | > 86.3 µM (inactive) | > 51.8 µM (inactive) | > 100 µM (inactive) | > 100 µM (inactive) | 44.2 µM (inactive) | > 100 µM (inactive) | > 100 µM (inactive) | > 93.8 µM (inactive) |
| O=C(Cc1ccccc1F)NC1=C(Cl)C(=O)c2ccccc2C1=O | 0.333 µM (active) | 0.822 µM (active) | 2.79 µM (inactive) | 0.31 µM (active) | 1.38 µM (inactive) | 0.459 µM (active) | 3.02 µM (inactive) | 3.48 µM (inactive) | 0.249 µM (active) | 2.84 µM (inactive) | 3.18 µM (inactive) | 0.481 µM (active) | 0.21 µM (active) | 1.74 µM (inactive) | 0.778 µM (active) | 10.1 µM (inactive) | 1.87 µM (inactive) | 2.77 µM (inactive) | 1.25 µM (inactive) | 3.74 µM (inactive) |
| O=C(CN(c1ccccc1)c1ccccc1)n1nnc2ccccc21 | 24.4 µM (inactive) | 37.2 µM (inactive) | 53 µM (inactive) | 29.5 µM (inactive) | 70.8 µM (inactive) | 24.3 µM (inactive) | 36 µM (inactive) | 49.8 µM (inactive) | 26.1 µM (inactive) | 24.5 µM (inactive) | 53 µM (inactive) | 41.3 µM (inactive) | 29.3 µM (inactive) | 27.5 µM (inactive) | 45.1 µM (inactive) | – | – | – | – | – |
| COc1cccc2ccc3c(c12)C(=O)OC31CCc2c(C)cccc21 (centres undefined) | 31.3 µM (inactive) | 22.4 µM (inactive) | 7.26 µM (inactive) | 8.59 µM (inactive) | 10.6 µM (inactive) | 8.49 µM (inactive) | 27.1 µM (inactive) | 26.7 µM (inactive) | 8.97 µM (inactive) | 11.4 µM (inactive) | 16.5 µM (inactive) | 11.6 µM (inactive) | 8.67 µM (inactive) | 12 µM (inactive) | 8.51 µM (inactive) | 34.2 µM (inactive) | 32.4 µM (inactive) | 20.4 µM (inactive) | 15.6 µM (inactive) | 0.018 µM (active) |
| O=C1NCCS(=O)(=O)N2CCC[C@@H]12 | > 100 µM (inactive) | > 100 µM (inactive) | > 100 µM (inactive) | > 100 µM (inactive) | > 100 µM (inactive) | > 100 µM (inactive) | > 100 µM (inactive) | > 100 µM (inactive) | > 100 µM (inactive) | > 100 µM (inactive) | > 100 µM (inactive) | > 100 µM (inactive) | > 100 µM (inactive) | 60.3 µM (inactive) | > 100 µM (inactive) | – | – | – | – | – |
| COc1ccc(/C(Cl)=C(/c2ccc(O)cc2)c2ccc(OCCN(C)C)cc2)cc1 | 11.5 µM (inactive) | 4.38 µM (inactive) | 14.3 µM (inactive) | 10.2 µM (inactive) | 12.7 µM (inactive) | – | 16.6 µM (inactive) | 16.7 µM (inactive) | 5.12 µM (inactive) | 14.1 µM (inactive) | 12.9 µM (inactive) | 16.6 µM (inactive) | 7.18 µM (inactive) | 16.1 µM (inactive) | 15.6 µM (inactive) | – | – | – | – | – |
| C(=C\c1cc(CCc2nc3ccccc3[nH]2)n[nH]1)/c1ccccc1 | > 100 µM (inactive) | > 100 µM (inactive) | > 100 µM (inactive) | > 100 µM (inactive) | > 100 µM (inactive) | > 100 µM (inactive) | > 100 µM (inactive) | > 100 µM (inactive) | > 100 µM (inactive) | > 100 µM (inactive) | > 100 µM (inactive) | > 100 µM (inactive) | > 100 µM (inactive) | > 100 µM (inactive) | > 100 µM (inactive) | – | – | – | – | – |
